Data reported in patent publication US20190290656A1, “PT(IV) PRODRUGS” (YISSUM RESEARCH DEVELOPMENT COMPANY OF THE HEBREW …, priority 2015, published 2019).
Like-named read-outs stand apart in the source and are kept apart here.

What was measured:
[1] = system: HCT-15 spheroids; experiment: 3D spheroid APH assay, HCT-15; type: cell-based, human; conditions: for IC50: HCT-15 spheroids, 72 h, APH test
Excerpt: (§1) Acid phosphatase (APH) assay. A modified APH assay, which is based on quantification of cytosolic acid phosphatase activity, was used for determining cell viability in spheroids. […] Triplicate cultures were established for each treatment. […] Evaluation was based on means from at least four independent experiments.
(§2) In order to improve the predictive capacity of the in vitro assays, we tested the activity in three three-dimensional (3D) cell cultures; human colon cancer cells, HCT-15, and human pancreatic cancer cells, KRAS wild type BxPC3 cells KRAS mutated PSN-1 cells. The cancer spheroids were treated with 3a and 3b for 72 h and the cell viability was assessed by means of the APH assay (Table 6). For comparison purposes, the cytotoxicities of CDDP and OXP were evaluated under the same experimental conditions.

[2] = system: PSN1 cells; experiment: MTT cytotoxicity assay, PSN1; type: cell-based, human; conditions: for IC50: PSN1, 72 h, MTT
Method in brief: (§3)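 MTT viability read after 72 h compound exposure in human cancer cell lines (lung H157, colon HCT-15, cervical A431, ovarian 2008, pancreatic PSN1, melanoma A375). Triplicate cultures per treatment.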

[3] = system: Histone deacetylase (HDAC); experiment: Histone deacetylase assay in PSN-1 cells; type: cell-based, human; conditions: 24 h, IC50 concentrations
Procedure: (§4) Histone deacetylase assay. Histone deacetylase activity was determined using Fluor-de-Lys® HDAC fluorometric activity assay kit (Enzo Life Sciences International, Inc., Plymount Meeting, Pa., U.S.A.). 2008 and PSN1 cells (5.10^4 seeded in 96-well microplates) were treated for 24 h with tested complexes, and then processed as reported by the manufacturer's instructions. Fluorescence was measured using a Fluoroskan Ascent FL (Labsystem, Finland) plate reader, with excitation at 360 nm and emission at 460 nm.
(§5) Thus, we measured both the levels of DNA platination and the ability of these pro-drugs to inhibit HDAC activity in cancer cells.

[4] = Cyclic voltammetric measurements; type: physicochemical; conditions: cyclic voltammetry
Procedure: Finally, units 1a and 2a (Scheme 4) were used for the formation of a peptide bond, to afford 3a. DMSO turned out to be a good solvent for this reaction, although DMF also afforded good results. ^1H NMR assignments for 1a, 2a, and 3a (Scheme 4) are summarized in Table 4. Cylic voltammetric measurements (CV) were performed on complex 3a and 3b finding Ep values of −0.462 and −0.058 V. The first reduction peak was assigned to the reduction of the cisplatin-derivative portion of the dinuclear complex, because of similarity with the values reported for similar complexes. The less negative reduction peak was assigned to the Pt-Phenantroline metal center, because of similarity to the values reported for the bis axial phenylbutyrato Pt(IV) complex Pt56MeSS(PhB)2.

[5] = system: BxPC3 spheroids; experiment: 3D spheroid APH assay, BxPC3; type: cell-based, human; conditions: 72 h, APH test
Excerpt: as §1, §2

[6] = system: human embryonic kidney HEK293 cells; experiment: MTT cytotoxicity against non-tumor cells; type: cell-based; conditions: for IC50: HEK293 non-tumor cells, 72 h, MTT; for SI (selectivity index): ratio between average IC50 of non-tumor cells and IC50 of malignant cells
Procedure: (§6) MTT assay. […] Triplicate cultures were established for each treatment.
The cytotoxic activity of derivatives 3a and 3b was also evaluated against non-tumor cells, namely human embryonic kidney HEK293 cells (Table 7). Both compounds 3a and 3b were more cytotoxic than CDDP.

[7] = system: HCT-15 cells; experiment: MTT cytotoxicity assay, HCT-15; type: cell-based, human
Method in brief: (§7)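 MTT viability read-out in HCT-15 and A375 human cancer cells after 72 h compound exposure; triplicate cultures per treatment.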

[8] = system: Histone deacetylase (HDAC); experiment: Histone deacetylase assay in 2008 cells; type: cell-based, human; conditions: 24 h, IC50 concentrations
Procedure: as §4, §5

[9] = system: A375 cells; experiment: MTT cytotoxicity assay, A375; type: cell-based, human
Method in brief: as §7

[10] = system: A431 cells; experiment: MTT cytotoxicity assay, A431; type: cell-based, human; conditions: A431, 72 h
Method in brief: as §3

[11] = system: H157 cells; experiment: MTT cytotoxicity assay, H157; type: cell-based, human; conditions: H157, 72 h
Procedure: as §6
(§8) The two dimers, 3a and 3b, as well as compounds 1a and 2a were screened against six human cancer cell lines representative of lung (H157), colon (HCT-15), cervical (A431), ovarian (2008) and pancreatic (PSN1) cancers, along with melanoma (A375). Cytotoxicity was evaluated by means of the MTT test after 72 h of treatment and the in vitro antitumor potential of newly synthesized derivatives was compared to that of the reference metallo-drugs CDDP and OXP.

[12] = system: PSN-1 spheroids; experiment: 3D spheroid APH assay, PSN-1; type: cell-based, human; conditions: for IC50: PSN-1 spheroids, 72 h, APH test
Excerpt: as §1, §2

[13] = system: 2008 cells; experiment: MTT cytotoxicity assay, 2008; type: cell-based, human; conditions: for IC50: 2008, 72 h, MTT
Procedure: as §6, §8

[14] = system: A2780 cells; experiment: MTT cytotoxicity assay, A2780; type: cell-based, human; conditions: A2780, 72 h exposure, MTT; read-out: IC50 (median growth inhibitory concentration)
Procedure: Platinum(IV) complexes were dissolved in DMSO to stock solutions of 1 mg/mL just before the experiment, and a calculated amount of drug solution was added to the cell growth medium to a final solvent concentration of 0.5%, which had no discernible effect on cell killing. Cisplatin (CDDP) and oxaliplatin (OXP) were dissolved just before the experiment in a 0.9% NaCl solution.
(§9) Human prostate adenocarcinoma (PC3) cells were obtained from European Collection of Cell Cultures (ECACC, Salisbury, UK). Human ovarian cancer cell lines A2780 and its cisplatin resistant variant, A2780cisR, were kindly provided by Prof.
Cancer Res. 1988, 48, 589-601]. […] Triplicate cultures were established for each treatment.

[15] = system: BxPC3 cells; experiment: MTT cytotoxicity assay, BxPC3; type: cell-based, human; conditions: BxPC3, 72 h exposure, MTT; read-out: IC50 (median growth inhibitory concentration)
[16] = system: PC3 cells; experiment: MTT cytotoxicity assay, PC3; type: cell-based, human; conditions: PC3, 72 h exposure, read-out: IC50 (median growth inhibitory concentration)
Procedure: Cisplatin (CDDP) and oxaliplatin (OXP) were dissolved just before the experiment in a 0.9% NaCl solution.
as §9
Triplicate cultures were established for each treatment.

[17] = HCT-15, 72 h, MTT (Table 5), read-out: IC50 (μM) ± S.D.
[18] = A375, 72 h, MTT (Table 5), read-out: IC50 (μM) ± S.D.

Compound	IC50 [1] [µM]	IC50 [2] [µM]	HDAC activity hampered [3]	IC50 [5] [µM]	IC50 [6] [µM]	SI (selectivity index) [6]	IC50 [7, 17] [µM]	HDAC activity hampered [8]	IC50 [9, 18] [µM]	IC50 [10] [µM]	IC50 [11] [µM]	IC50 [12] [µM]	IC50 [13] [µM]	further results
c,c,t,t,c,c-[(DACH)(56Phen)(PhBu)Pt(μ-OOC—(CH2)2—CONH(CH2)3COO)—Pt(DCA)(NH3)2 (Cl2)](TFA)2 [Compound 3a]	40 ± 4.58	0.09	~10%	59.1 ± 3.84	2.25 ± 0.29	5.5	0.36 ± 0.08	about 8%	0.08 ± 0.01	0.2 ± 0.09	0.95 ± 0.08	10.3 ± 4.85	0.79	times more effective than CDDP ([1]; HCT-15 3D model): about 2 fold; times more effective than CDDP ([2]; PSN1 cells): up to 200 fold; times more effective than OXP ([2]; PSN1 cells): ≤ 92 fold; Ep, first reduction peak (cisplatin-derivative portion) [4]: −0.462 V; Ep, less negative reduction peak (Pt-Phenantroline metal center) [4]: −0.058 V; times SI better than that of cisplatin [6]: about 2 fold; factor by which activity exceeded that of the reference drugs ([12]; PSN-1 3D model): about 6 fold
[NH2][Pt]([NH2])([Cl])[Cl] [CDDP, Cisplatin, reference compound]	89.2 ± 3.44	18.2	not effective in modifying HDAC activity	69.6 ± 8.21	19.6 ± 2.95	2.7	15.3 ± 2.63	not effective in modifying HDAC activity	3.11 ± 0.98	1.65 ± 0.51	3.28 ± 2.38	59.9 ± 12.9	2.22	IC50 [14]: 2.8 ± 0.2 µM; IC50 ([7]; HCT-15, 72 h exposure, MTT (Table 1), read-out: IC50 (median growth inhibitory concentration)): 11.3 ± 1.06 µM; IC50 [15]: 11.4 ± 1.14 µM; IC50 ([9]; A375, 72 h exposure, MTT (Table 1), read-out: IC50 (median growth inhibitory concentration)): 4.03 ± 0.95 µM; IC50 [16]: 2.25 ± 0.82 µM; fold more potent than 3b ([13]; 2008 cells): ~3 fold
